The NIST ThermoML archive (doi:10.1021/acs.jced.7b01026)

Tests used:
[1] = molar heat capacity at constant pressure
[2] = Crystal; DTA
[3] = Molar enthalpy of transition or fusion; settings: Crystal; DSC
[4] = Boiling temperature at pressure P; settings: 100 kPa; Glass; DTA

CCCCCC(=O)CCCCC [undecan-6-one]
[1], 101.33 kPa, Liquid, DSC
Settings	molar heat capacity at constant pressure [J/K/mol]
293.16 K	363.74
343.16 K	381.62
373.15 K	402.4
423.13 K	422.49
473.1 K	463.02

Settings	Molar enthalpy of transition or fusion [kcal/mol]	Normal melting temperature [°C]
[2]	–	13
[3]	7.49	–

CC(CO)c1ccccc1 (stereo not given) [2-phenyl-1-propanol]
[1], 101.33 kPa, Liquid, DSC
Settings	molar heat capacity at constant pressure [J/K/mol]
273.15 K	273.34
323.15 K	300.98
373.15 K	325.91
423.15 K	341.98
473.15 K	351.78

Settings	Boiling temperature at pressure P [°C]
[4]	-75.5

CC(=O)Oc1ccccc1 [phenyl ethanoate]
[1], 101.33 kPa, Liquid, DSC
Settings	molar heat capacity at constant pressure [J/K/mol]
253.15 K	220.42
293.15 K	224.78
333.15 K	240.03
373.15 K	255.41
413.15 K	269.44

Settings	Molar enthalpy of transition or fusion [kcal/mol]	Normal melting temperature [°C]
[2]	–	-7
[3]	3.06	–

C/C=C/c1ccc(O)c(OC)c1 [2-methoxy-4-(1E)-1-propen-1-yl-phenol]
[1], 101.33 kPa, Liquid, DSC
Settings	molar heat capacity at constant pressure [J/K/mol]
298.15 K	326.92
323.15 K	336.45
373.15 K	348.43
423.15 K	381.6
473.15 K	387.19

Settings	Molar enthalpy of transition or fusion [kcal/mol]	Normal melting temperature [°C]
[2]	–	21.6
[3]	2.8	–

FC(F)C(F)(F)C(F)(F)C(F)(F)C(F)(F)C(F)(F)C(F)(F)C(F)(F)F [1H-perfluorooctane]
[1], 101.33 kPa, Liquid, DSC
Settings	molar heat capacity at constant pressure [J/K/mol]
258.16 K	446.11
273.16 K	458.71
298.16 K	480.14
323.16 K	494.84
373.14 K	526.76

Settings	Molar enthalpy of transition or fusion [kcal/mol]	Normal melting temperature [°C]
[2]	–	-18.8
[3]	2.36	–

Cc1cccc(CO)c1 [3-methylbenzyl alcohol]
[1], 101.33 kPa, DSC, Liquid
Settings	molar heat capacity at constant pressure [J/K/mol]
266.15 K	222.22
306.15 K	250.8
356.15 K	281.1
406.15 K	295.27
456.15 K	308.1

Settings	Molar enthalpy of transition or fusion [kcal/mol]	Normal melting temperature [°C]
[2]	–	-8.8
[3]	3.24	–

CCCOCC(C)O (stereo not given) [1-propoxy-2-propanol]
[1], 101.33 kPa, Liquid, DSC
Settings	molar heat capacity at constant pressure [J/K/mol]
193.19 K	237.41
223.15 K	247.93
273.16 K	271.09
323.16 K	290.12
373.15 K	314.7

Cc1ccc(C)o1 [2,5-dimethylfuran]
[1], 101.33 kPa, Liquid, DSC
Settings	molar heat capacity at constant pressure [J/K/mol]
213.15 K	159.28
253.15 K	163.99
293.15 K	170.63
333.15 K	184.95

CCOC(=O)Cc1ccccc1 [ethyl phenylacetate]
[1], 101.33 kPa, Liquid, DSC
Settings	molar heat capacity at constant pressure [J/K/mol]
253.15 K	271.75
293.15 K	288.83
333.15 K	292.77
373.15 K	306.89
413.15 K	326.27

Settings	Molar enthalpy of transition or fusion [kcal/mol]	Normal melting temperature [°C]
[2]	–	-29
[3]	4.32	–

Cc1ccc(C=O)cc1 [4-methylbenzaldehyde]
[1], 101.33 kPa, DSC, Liquid
Settings	molar heat capacity at constant pressure [J/K/mol]
273.17 K	191.4
313.16 K	204.25
353.15 K	216.27
393.14 K	232.37
453.11 K	250.99

Settings	Molar enthalpy of transition or fusion [kcal/mol]	Normal melting temperature [°C]
[2]	–	-10.0
[3]	2.64	–

CCC(O)c1ccccc1 (stereo not given) [1-phenyl-1-propanol]
[1], 101.33 kPa, Liquid, DSC
Settings	molar heat capacity at constant pressure [J/K/mol]
273.15 K	279.6
323.15 K	319.91
373.15 K	338.03
423.15 K	352.6
473.15 K	368.94

Settings	Boiling temperature at pressure P [°C]	Normal melting temperature [°C]
[2]	–	-10.6
[4]	-74.3	–

CC(O)Cc1ccccc1 (stereo not given) [1-phenyl-2-propanol]
[1], 101.33 kPa, Liquid, DSC
Settings	molar heat capacity at constant pressure [J/K/mol]
273.15 K	282.05
323.15 K	311.06
373.15 K	329.31
423.15 K	345.52
473.15 K	354.78

Settings	Boiling temperature at pressure P [°C]
[4]	-72.5

Cc1ccccc1C=O [2-methylbenzaldehyde]
[1], 101.33 kPa, Liquid, DSC
Settings	molar heat capacity at constant pressure [J/K/mol]
238.16 K	184.43
293.16 K	199.57
348.15 K	217.83
403.13 K	230.69
458.11 K	261.08

Settings	Molar enthalpy of transition or fusion [kcal/mol]	Normal melting temperature [°C]
[2]	–	-39.7
[3]	2.44	–

COc1cccc(OC)c1O [1,3-dimethoxy-2-hydroxybenzene]
[1], 101.33 kPa, Liquid, DSC
Settings	molar heat capacity at constant pressure [J/K/mol]
333.16 K	317.27
373.15 K	328.21
413.14 K	333.46
453.12 K	347.18
493.1 K	357.35

Settings	Molar enthalpy of transition or fusion [kcal/mol]	Normal melting temperature [°C]
[2]	–	53.2
[3]	12	–

CCCCCCC1CCCCC1 [hexylcyclohexane]
[1], 101.33 kPa, Liquid, DSC
Settings	molar heat capacity at constant pressure [J/K/mol]
228.16 K	292.03
288.16 K	330.24
348.14 K	361.21
408.13 K	408.85
468.09 K	463.72

Settings	Molar enthalpy of transition or fusion [kcal/mol]	Normal melting temperature [°C]
[2]	–	-48.2
[3]	4.91	–

Cc1cccc(C=O)c1 [3-methylbenzaldehyde]
[1], 101.33 kPa, Liquid, DSC
Settings	molar heat capacity at constant pressure [J/K/mol]
273.17 K	189.47
313.16 K	205.93
353.15 K	219.75
393.14 K	235.61
453.11 K	258.08

Settings	Normal melting temperature [°C]
[2]	-48.4

Cc1ccc(C(=O)O)cc1 [4-methylbenzoic acid]
[1], 101.33 kPa, Liquid, DSC
Settings	molar heat capacity at constant pressure [J/K/mol]
458.15 K	331.25
473.15 K	338.33
488.15 K	347.59
503.15 K	353.98
523.15 K	362.02

Settings	Molar enthalpy of transition or fusion [kcal/mol]	Normal melting temperature [°C]
[2]	–	179.0
[3]	5.14	–

Cc1ccc(C=O)o1 [5-methylfurfural]
[1], 101.33 kPa, Liquid, DSC
Settings	molar heat capacity at constant pressure [J/K/mol]
250.15 K	180.47
300.15 K	192.47
350.14 K	202.49
400.13 K	219.34
450.1 K	233.54

Settings	Molar enthalpy of transition or fusion [kcal/mol]	Normal melting temperature [°C]
[2]	–	-32.6
[3]	2.76	–

CC(C)c1ccccc1O [2-(1-methylethyl)phenol]
molar heat capacity at constant pressure [J/K/mol], [1], 101.33 kPa
Settings	273.15 K	323.15 K	373.15 K	423.15 K	473.15 K
DSC, Liquid	–	307.38	321.55	337.89	354.37
Metastable liquid, DSC	281.92	–	–	–	–

Settings	Molar enthalpy of transition or fusion [kcal/mol]	Normal melting temperature [°C]
[2]	–	12
[3]	2.62	–
